Laboratory results published in patent US20250352577A1, “TUMOR NEOANTIGENIC PEPTIDES AND USES THEREOF” (MNEMO THERAPEUTICS, priority 2021, published 2025).
“Also recorded” adds a separate entry of the source. Values belong to the molecule of their own block, whether it stands above or below them.

Columns and labels:
[1] = tested on: CD8+ T cells from HLA-A2+ healthy donors; experiment: Priming of naive CTLs (immunogenicity assay) with two-colour tetramer staining; format: cell-based, human; conditions: for percentage of tetramer positive cells among total CD8+ T cells compared to control: one donor, control co-culture without peptides; for specific CD8+ T cell expansion (immunogenicity): total of 6 healthy donors, FIG. 11A
Procedure: Priming of naïve CTLs. […] CD14+, CD4+ and CD8+ cells were purified by positive selection using magnetic beads (Miltenyi Biotec). While CD4+ and CD8+ T cells were cryopreserved until the experiment day, CD14+ fraction was cultured in the presence of IL-4 (50 ng/mL) and GM-CSF (10 ng/mL) at 10^6 cells/mL during 5 days to obtain moDCs. After this period of time, the moDCs were maturated with LPS and incubated with synthetic ER-derived peptides at a final concentration of 1 μg/mL for 2 hours.
Tetramer Staining. Cells were resuspended in PBS, stained with Live/Dead Aqua-405 nm (ThermoFisher) during 20 minutes at 4° C. and washed once. After that, cells were resuspended in PBS-1% BSA containing the mix of SA-coupled tetramers and incubated in the dark at room temperature during 20 minutes. Without further washing, surface antibodies were added in PBS-1% BSA and cells were incubated 20 minutes in the dark at 4° C. […] Finally, cells were washed twice and resuspended in FACS buffer for flow cytometry analysis.
Priming assays were thus performed to test the ability of identified peptides to expand specific cytotoxic T cells. […] After loading the moDCs with a mix of synthetic peptides, autologous co-culture was performed with CD4+ and CD8+ T cells. Finally, the expansion of specific CD8+ T cells was analysed by flow cytometry using two-colours tetramer staining. As a control of specific expansion, the co-culture was performed in the absence of peptides.
The same experiment was performed in order to evaluate the response in additional 5 donors. […] As a positive of expansions, mutated Melan-A peptide ([…]) were used.

[2] = tested on: CD8+ T cells of LUAD patients; experiment: Tetramer staining of CD8+ T cells from LUAD patient samples and TILs; format: cell-based, human; conditions: TILs expanded with peptide mix + IL-2 or IL-2 only
Procedure: Tetramer Staining. Cells were resuspended in PBS, stained with Live/Dead Aqua-405 nm (ThermoFisher) during 20 minutes at 4° C. and washed once. After that, cells were resuspended in PBS-1% BSA containing the mix of SA-coupled tetramers and incubated in the dark at room temperature during 20 minutes. Without further washing, surface antibodies were added in PBS-1% BSA and cells were incubated 20 minutes in the dark at 4° C. Surface antibodies were a combination of anti-CD3-BV650+ anti-CD8-PECy7 in combination with anti-CCR7-AF700+ anti-CD45RA-BUV395 when required. Finally, cells were washed twice and resuspended in FACS buffer for flow cytometry analysis.
Tissues and Blood samples. […]
Tumor infiltrating lymphocytes (TILs) cultures. […] Cells were feed/split as necessary during 15-20 days and cryopreserve or analyzed for tetramer staining.
In a first set of experiments tumor infiltrating lymphocytes (TILs) expanded with a mix of TE-derived peptides and Il-2, or only with Il-2, were analyzed by tetramer staining. […]
In a second cohort of 5 primary, untreated, LUAD tumor, juxta-tumor, tumor-draining lymph node and blood samples from LUAD cancer HLA-A2+ patients were analyzed. […]

[3] = biological target: T1, TE-exon fusion (JET / chimeric) transcript-derived peptide, LUAD (peptide 53) peptide on HLA-A*02:01 (human); experiment: multimer staining
T1 peptide: MLVTWELAL

[4] = biological target: T2, TE-exon fusion (JET / chimeric) transcript-derived peptide, LUAD (peptide 17) peptide on HLA-A*02:01 (human); experiment: multimer staining
T2 peptide: LLDRFGYHV

Molecule: YLWTTFFPL
- percentage of tetramer positive cells among total CD8+ T cells compared to control [1]: increase in at least one magnitude order
- specific CD8+ T cell expansion (immunogenicity) [1]: specific CD8+ T expansions

Molecule: LLHLESFLV
- specific CD8+ T cell expansion (immunogenicity) [1]: specific CD8+ T expansions

Molecule: RLLHLESFL
- percentage of tetramer positive cells among total CD8+ T cells compared to control [1]: increase in at least one magnitude order
- specific CD8+ T cell expansion (immunogenicity) [1]: specific CD8+ T expansions

Molecule: YLQGLPLPL
- specific CD8+ T cell expansion (immunogenicity) [1]: specific CD8+ T expansions

Molecule: MLMKTVWQA
- specific CD8+ T cell expansion (immunogenicity) [1]: specific CD8+ T expansions

Molecule: GLLNISHTA
- specific CD8+ T cell expansion (immunogenicity) [1]: specific CD8+ T expansions

Molecule: ILTASITSI
- specific CD8+ T cell expansion (immunogenicity) [1]: specific CD8+ T expansions

Molecule: MLVTWELAL
- specific CD8+ T cell expansion (immunogenicity) [1]: specific CD8+ T expansions

Molecule: VLMWTMAHL
- specific CD8+ T cell expansion (immunogenicity) [1]: specific CD8+ T expansions

Molecule: ILSGYGPCV
- specific CD8+ T cell expansion (immunogenicity) [1]: specific CD8+ T expansions

Molecule: RLADHLSFC
- percentage of tetramer positive cells among total CD8+ T cells compared to control [1]: increase in at least one magnitude order
- specific CD8+ T cell expansion (immunogenicity) [1]: specific CD8+ T expansions; also recorded: immunogenic

Molecule: FLIVAEILI
- percentage of tetramer positive cells among total CD8+ T cells compared to control [1]: increase in at least one magnitude order

Molecule: ILHSLVTGV
- specific CD8+ T cell expansion (immunogenicity) [1]: specific CD8+ T expansions

Molecule: LLTSWHLYL
- specific CD8+ T cell expansion (immunogenicity) [1]: specific CD8+ T expansions

Molecule: GLPSHVELA
- specific CD8+ T cell expansion (immunogenicity) [1]: specific CD8+ T expansions; also recorded: immunogenic
- tetramer positive CD8+ T cells in TILs of LUAD patients [2]: TILs recognizing

Molecule: SLMQSGSPV
- specific CD8+ T cell expansion (immunogenicity) [1]: specific CD8+ T expansions

Molecule: AILPKANTV
- percentage of tetramer positive cells among total CD8+ T cells compared to control [1]: increase in at least one magnitude order
- specific CD8+ T cell expansion (immunogenicity) [1]: specific CD8+ T expansions

Molecule: YLPYFLKSL
- specific CD8+ T cell expansion (immunogenicity) [1]: specific CD8+ T expansions

Molecule: LLDRFGYHV
- specific CD8+ T cell expansion (immunogenicity) [1]: specific CD8+ T expansions

Molecule: LLGETKVYV
- percentage of tetramer positive cells among total CD8+ T cells compared to control [1]: increase in at least one magnitude order
- specific CD8+ T cell expansion (immunogenicity) [1]: specific CD8+ T expansions

Molecule: VLLTNTIWL
- specific CD8+ T cell expansion (immunogenicity) [1]: specific CD8+ T expansions

Molecule: RQAPGFHHA
- specific CD8+ T cell expansion (immunogenicity) [1]: specific CD8+ T expansions

Molecule: FLGTRVTRV
- specific CD8+ T cell expansion (immunogenicity) [1]: specific CD8+ T expansions

Molecule: AMDGKELSL
- specific CD8+ T cell expansion (immunogenicity) [1]: specific CD8+ T expansions

- binding result [3]: recognises
B1: TCR number 4 (Table 4bis) (TCR)
alpha TRAV35*01 TRAJ54*01 CDR3: CAGQLAGAQKLVF
beta TRBV13*01 TRBJ2-5*01 CDR3: CASSPSRDGQETQYF

- binding result [4]: recognises
B2: TCR number 1 (Table 4bis) (TCR)
alpha TRAV41*01 TRAJ34*01 CDR3: CAVLLDNTDKLIF
beta TRBV6-5*01 TRBJ-2*01 CDR3: CASSRLQGALELFF
